Experimental data reported in US8940892B2, “Triazine derivatives for use in the treatment of malaria” (CSIR, priority 2009, dated 2015).

How the values were obtained:
[1] = Cytotoxicity SRB assay (HeLa); assay type: cell-based; details: human, HeLa cells, read-out: Cytotox SRB (HeLa) IC50
[2] = test system: Plasmodium falciparum (FCR-3); test: Antimalarial activity against Plasmodium falciparum FCR-3; assay type: cell-based; details: FCR3, FCR-3 strain
[3] = test system: P. falciparum strains resistant to Pyr and CG; details: even against strains highly resistant to other DHFR inhibitors; cited from earlier work
[4] = in vivo; cited from earlier work

IC50 [2] [µM]	SMILES	IC50 [1] [µM]	effective concentration in vitro [3]	gastrointestinal (GI) tolerability [4]
0.0307 ± 0.0102	NC1=NC(c2ccccc2)N(CCCOc2cccc(C(F)(F)F)c2)C(N)=N1 (stereo not shown) [No. 12]	14.2	–	–
0.0444 ± 0.0068	NC1=NC(c2ccccc2)N(CCCOc2ccc(C(F)(F)F)cc2)C(N)=N1 (stereo not shown) [No. 17]	–	–	–
3.37 ± 0.168	NC1=NC(c2ccc(C(F)(F)F)cc2)N(CCCOc2ccc(Cl)cc2)C(N)=N1 (stereo not shown) [No. 10]	11	–	–
3.98 ± 0.612	NC1=NC(c2ccc(C(F)(F)F)cc2)N(CCCCCOc2ccc(Cl)cc2)C(N)=N1 (stereo not shown) [No. 44]	–	–	–
0.0398 ± 0.01	NC1=NC(c2ccccc2)N(CCCOc2ccc(Cl)c(Cl)c2)C(N)=N1 (stereo not shown) [No. 9]	33.5	–	–
3.24 ± 0.451	NC1=NC(c2ccccc2C(F)(F)F)N(CCCOc2ccc(Cl)cc2)C(N)=N1 (stereo not shown) [No. 24]	19	–	–
0.024 ± 0.017	NC1=NC(c2ccccc2)N(CCCOc2ccc(Br)cc2)C(N)=N1 (stereo not shown) [No. 43]	–	–	–
0.525 ± 0.0762	NC1=NC(c2ccccc2)N(CCCOc2ccccc2F)C(N)=N1 (stereo not shown) [No. 14]	67.6	–	–
4.53 ± 0.631	NC1=NC(c2ccc(C(F)(F)F)cc2)N(CCCOc2ccc(Cl)c(Cl)c2)C(N)=N1 (stereo not shown) [No. 25]	13.1	–	–
> 50	NC1=NC(c2cccc(OC(F)(F)F)c2)N(CCCOc2ccc(Cl)cc2)C(N)=N1 (stereo not shown) [No. 40]	–	–	–
0.047 ± 0.01	COc1cc(C)ccc1OCCCN1C(N)=NC(N)=NC1c1ccccc1 (stereo not shown) [No. 42]	–	–	–
0.000151 ± 7.9e-05	NC1=NC(c2ccccc2)N(CCCOc2ccc(Cl)cc2Cl)C(N)=N1 (stereo not shown) [No. 11]	32.6	–	–
3.06 ± 0.042	NC1=NC(c2ccccc2C(F)(F)F)N(CCCOc2ccc(Cl)c(Cl)c2)C(N)=N1 (stereo not shown) [No. 26]	11.8	–	–
0.0603 ± 0.0087	COc1ccc(OCCCN2C(N)=NC(N)=NC2c2ccccc2)cc1 (stereo not shown) [No. 13]	253	–	–
2.12 ± 0.75	NC1=NC(c2ccccc2)N(CCOc2ccc(Cl)c(Cl)c2)C(N)=N1 (stereo not shown) [No. 6]	–	–	–
0.395 ± 0.109	NC1=NC(c2ccccc2)N(CCCOc2ccc(F)cc2)C(N)=N1 (stereo not shown) [No. 16]	–	–	–
0.171 ± 0.027	NC1=NC(c2ccccc2)N(CCCOc2ccccc2Cl)C(N)=N1 (stereo not shown) [No. 15]	88.8	–	–
4.83 ± 0.689	NC1=NC(c2ccccc2)N(CCOc2ccc(Cl)cc2)C(N)=N1 (stereo not shown) [No. 5]	–	–	–
0.055 ± 0.01	NC1=NC(c2ccccc2)N(CCCOc2ccc(Cl)cc2)C(N)=N1 (stereo not shown) [No. 8]	39	–	–

More lines, now with the values behind:

SMILES	IC50 [2] [µM]	IC50 [1] [µM]	effective concentration in vitro [3]	gastrointestinal (GI) tolerability [4]
NC1=NC(c2ccccc2Cl)N(CCCOc2ccc(Cl)cc2)C(N)=N1 (stereo not shown) [No. 18]	0.859	15.7	–	–
NC1=NC(c2ccccc2)N(CCc2ccc(Cl)c(Cl)c2)C(N)=N1 (stereo not shown) [No. 4]	4.77 ± 0.297	–	–	–
NC1=NC(c2cccc(Cl)c2)N(CCCOc2ccc(Cl)cc2)C(N)=N1 (stereo not shown) [No. 21]	0.156 ± 0.012	14.1	–	–
Cc1cccc(C2N=C(N)N=C(N)N2CCCOc2ccc(Cl)cc2)c1 (stereo not shown) [No. 41]	0.05 ± 0.04	–	–	–
NC1=NC(c2ccccc2F)N(CCCOc2ccc(Cl)c(Cl)c2)C(N)=N1 (stereo not shown) [No. 28]	0.337 ± 0.095	29.5	–	–
COc1cccc(C2N=C(N)N=C(N)N2CCCOc2ccc(Cl)cc2)c1F (stereo not shown) [No. 37]	0.077 ± 0.032	33.3	–	–
NC1=NC(c2ccc(F)cc2)N(CCCOc2ccc(Cl)c(Cl)c2)C(N)=N1 (stereo not shown) [No. 29]	35.8 ± 8.97	–	–	–
CC1(C)N=C(N)N=C(N)N1c1ccc(Cl)cc1 [No. 1, Cycloguanil, reference compound]	8.15 ± 4.13	–	–	–
NC1=NC(c2cccc(Cl)c2F)N(CCCOc2ccc(Cl)c(Cl)c2)C(N)=N1 (stereo not shown) [No. 35]	0.098 ± 0.005	13.6	–	–
NC1=NC(c2ccc(F)cc2F)N(CCCOc2ccc(Cl)cc2)C(N)=N1 (stereo not shown) [No. 38]	0.163 ± 0.05	31.8	–	–
NC1=NC(c2ccccc2Cl)N(CCCCOc2ccc(Cl)c(Cl)c2)C(N)=N1 (stereo not shown) [No. 7]	2.57 ± 0.7	–	–	–
NC1=NC(c2ccccc2F)N(CCCOc2ccc(Cl)cc2)C(N)=N1 (stereo not shown) [No. 23]	0.412 ± 0.08	52.2	–	–
NC1=NC(c2ccccc2)N(Cc2ccc(Cl)c(Cl)c2)C(N)=N1 (stereo not shown) [No. 2]	4.32 ± 1.19	–	–	–
NC1=NC(c2ccc(Cl)c(F)c2)N(CCCOc2ccc(Cl)cc2)C(N)=N1 (stereo not shown) [No. 20]	1.59	13.7	–	–
COc1ccc(C2N=C(N)N=C(N)N2CCCOc2ccc(Cl)cc2)cc1 (stereo not shown) [No. 19]	0.046 ± 0.017	25	–	–
NC1=NC(c2ccc(Cl)cc2)N(CCCOc2ccc(Cl)cc2)C(N)=N1 (stereo not shown) [No. 32]	0.156 ± 0.129	15.6	–	–
NC1=NC(c2ccc(F)cc2)N(CCCOc2ccc(Cl)cc2)C(N)=N1 (stereo not shown) [No. 22]	0.155 ± 0.048	–	–	–
NC1=NC(c2ccc(Cl)c(F)c2)N(CCCOc2ccc(Cl)c(Cl)c2)C(N)=N1 (stereo not shown) [No. 30]	0.591 ± 0.077	14.5	–	–
NC1=NC(c2ccc(Cl)cc2Cl)N(CCCOc2ccc(Cl)cc2)C(N)=N1 (stereo not shown) [No. 39]	2.51 ± 0.667	12.1	–	–
NC1=NC(c2ccccc2Cl)N(CCCOc2ccc(Cl)c(Cl)c2)C(N)=N1 (stereo not shown) [No. 31]	8.61 ± 0.998	13.7	–	–
NC1=NC(c2ccc(Cl)cc2)N(CCCOc2ccc(Cl)c(Cl)c2)C(N)=N1 (stereo not shown) [No. 34]	0.061 ± 0.036	13.4	–	–
NC1=NC(c2cc(Cl)ccc2Cl)N(CCCOc2ccc(Cl)cc2)C(N)=N1 (stereo not shown) [No. 27]	0.926 ± 0.128	10.9	–	–
NC1=NC(c2ccc(SC(F)(F)F)cc2)N(CCCOc2ccc(Cl)cc2)C(N)=N1 (stereo not shown) [No. 36]	2.39 ± 0.03	–	–	–
CC1(C)N=C(N)N=C(N)N1OCCCOc1cc(Cl)c(Cl)cc1Cl [WR99210]	–	–	nanomolar (nM) range	unacceptable
NC1=NC(c2ccccc2)N(CCc2ccc(Cl)cc2)C(N)=N1 (stereo not shown) [No. 3]	7.16 ± 0.626	–	–	–
NC1=NC(c2cccc(Cl)c2F)N(CCCOc2ccc(Cl)cc2)C(N)=N1 (stereo not shown) [No. 33]	0.679 ± 0.221	23	–	–
